Test results reported in the NIST ThermoML archive (doi:10.1021/je500320c).

Assay: an = ratio of the nth substance listed
Settings: 101 kPa, Liquid, a1 = 2

NC(N)=O [urea] + C[N+](C)(C)CCO.[Cl-]
Settings	mass density [kg/m3]	viscosity [mPa·s]
298.15 K	1197.9	1571
303.15 K	1195.2	953.7
308.15 K	1192.7	608.4
313.15 K	1190.1	403.2
318.15 K	1187.5	277.2
323.15 K	1184.9	195.9
328.15 K	1182.3	143.6
333.15 K	1179.7	107.7
